According to patent publication US20220402980A1, “CHROMOGRANIN A-DERIVED PEPTIDES AND USES THEREOF” (OSPEDALE SAN RAFFAELE S.R.L., priority 2019, published 2022):
Read-outs that look alike come from different tables or passages of the source. Where no end group is shown, it is not given here.

What was measured:
αvβ6 [1] = molecular target: T1, αvβ6 (Homo sapiens, UniProt P06756+P18564); assay: Direct binding of peptide-IRDye conjugates to αvβ6-coated microtiter plates; conditions: purified integrin
T1 construct: recombinant human αvβ6 extracellular domain (R&D Systems); purchased R&D Systems (Minneapolis, Minn.)
T1 sequence (P06756 31-992 limits assumed): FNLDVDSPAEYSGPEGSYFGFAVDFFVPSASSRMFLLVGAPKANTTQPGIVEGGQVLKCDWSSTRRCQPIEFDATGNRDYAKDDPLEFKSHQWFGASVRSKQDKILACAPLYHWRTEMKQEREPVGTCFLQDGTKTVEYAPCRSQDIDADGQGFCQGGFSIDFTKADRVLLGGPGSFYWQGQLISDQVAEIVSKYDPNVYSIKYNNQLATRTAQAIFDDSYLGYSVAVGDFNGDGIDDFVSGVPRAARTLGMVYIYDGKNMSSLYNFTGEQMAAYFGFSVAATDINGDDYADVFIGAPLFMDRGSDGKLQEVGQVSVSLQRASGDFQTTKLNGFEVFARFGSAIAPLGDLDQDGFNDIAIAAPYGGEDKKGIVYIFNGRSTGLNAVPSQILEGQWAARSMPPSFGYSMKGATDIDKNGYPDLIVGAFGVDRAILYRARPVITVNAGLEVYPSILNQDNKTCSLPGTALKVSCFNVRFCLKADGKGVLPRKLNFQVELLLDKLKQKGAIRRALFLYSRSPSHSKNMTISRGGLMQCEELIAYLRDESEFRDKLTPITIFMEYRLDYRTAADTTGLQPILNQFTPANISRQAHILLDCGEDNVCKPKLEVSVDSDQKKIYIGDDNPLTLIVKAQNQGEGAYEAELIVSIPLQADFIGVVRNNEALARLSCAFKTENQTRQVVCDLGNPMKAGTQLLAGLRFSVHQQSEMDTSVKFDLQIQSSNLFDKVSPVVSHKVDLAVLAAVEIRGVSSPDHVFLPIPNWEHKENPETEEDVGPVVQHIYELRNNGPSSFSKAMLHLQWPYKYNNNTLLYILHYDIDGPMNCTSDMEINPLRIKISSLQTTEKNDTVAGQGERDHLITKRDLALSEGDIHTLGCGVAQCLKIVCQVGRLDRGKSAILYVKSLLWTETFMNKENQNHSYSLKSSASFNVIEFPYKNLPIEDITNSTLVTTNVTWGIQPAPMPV
T1 sequence (P18564 22-709 limits assumed): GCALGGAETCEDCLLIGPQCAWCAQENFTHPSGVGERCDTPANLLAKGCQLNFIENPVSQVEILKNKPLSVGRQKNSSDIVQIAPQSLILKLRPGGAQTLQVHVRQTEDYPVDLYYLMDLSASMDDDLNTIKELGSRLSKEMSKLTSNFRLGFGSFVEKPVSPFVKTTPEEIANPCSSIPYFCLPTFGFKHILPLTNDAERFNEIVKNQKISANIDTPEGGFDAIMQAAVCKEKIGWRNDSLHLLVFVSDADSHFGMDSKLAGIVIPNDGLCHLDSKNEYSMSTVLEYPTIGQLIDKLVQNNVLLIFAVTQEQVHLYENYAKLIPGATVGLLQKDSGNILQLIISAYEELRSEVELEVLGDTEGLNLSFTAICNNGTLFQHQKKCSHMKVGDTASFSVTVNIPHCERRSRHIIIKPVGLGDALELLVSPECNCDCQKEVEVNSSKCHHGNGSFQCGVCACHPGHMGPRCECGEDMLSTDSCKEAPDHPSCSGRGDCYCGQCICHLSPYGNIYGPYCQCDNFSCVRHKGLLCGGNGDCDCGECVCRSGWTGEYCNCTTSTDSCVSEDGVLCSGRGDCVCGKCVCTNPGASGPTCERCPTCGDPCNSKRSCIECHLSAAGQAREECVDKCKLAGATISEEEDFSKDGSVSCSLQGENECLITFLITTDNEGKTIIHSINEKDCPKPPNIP
Description: (§1) Binding of 5a-IRDye and 2a-IRDye to microtiterplates coated with or without αvβ6 or αvβ8 as indicated in each panel. Various amounts of conjugates were added to microtiterplates and incubated for 1 h at room temperature (see Experimental section). After washing, bound fluorescence was measured using an Odyssey CLx (LI-COR) scanner. Representative images of the scanned plate and quantification of the binding are reported. Mean ±SE of triplicates. Effective concentration 50 (EC50, mean±SD) of the indicated number of independent experiments is shown.
(§2) Binding of 5a-IRDye, 2a-IRDye and Cys-IRDye to αvβ6 and αvβ8 was determined by direct binding assays as follows: 96-well clear-bottom black microtiterplates (Corning® cat. 3601) were coated with 4 μg/ml αvβ6 or αvβ8, in Dulbecco's phosphate-buffered saline with Ca2+ and Mg2+(DPBS, 50 ul/well) and left to incubate over-night at 4° C. […] The bound fluorescence was then quantified by scanning the empty plates with an Odyssey CLx near-infrared fluorescence imaging system (LI-COR) using the following settings: scan intensity, 8.5; scan focus offset, 3; scan quality, highest; channel, 800; resolution, 169 pm.

αvβ8 [2] = molecular target: T2, αvβ8 (Homo sapiens, UniProt P06756+P26012); assay: Direct binding of peptide-IRDye conjugates to αvβ8-coated microtiter plates; conditions: purified integrin
T2 sequence (P06756 31-992 limits assumed): as the sequence (P06756 31-992 limits assumed) above
T2 sequence (P26012 43-684 limits assumed): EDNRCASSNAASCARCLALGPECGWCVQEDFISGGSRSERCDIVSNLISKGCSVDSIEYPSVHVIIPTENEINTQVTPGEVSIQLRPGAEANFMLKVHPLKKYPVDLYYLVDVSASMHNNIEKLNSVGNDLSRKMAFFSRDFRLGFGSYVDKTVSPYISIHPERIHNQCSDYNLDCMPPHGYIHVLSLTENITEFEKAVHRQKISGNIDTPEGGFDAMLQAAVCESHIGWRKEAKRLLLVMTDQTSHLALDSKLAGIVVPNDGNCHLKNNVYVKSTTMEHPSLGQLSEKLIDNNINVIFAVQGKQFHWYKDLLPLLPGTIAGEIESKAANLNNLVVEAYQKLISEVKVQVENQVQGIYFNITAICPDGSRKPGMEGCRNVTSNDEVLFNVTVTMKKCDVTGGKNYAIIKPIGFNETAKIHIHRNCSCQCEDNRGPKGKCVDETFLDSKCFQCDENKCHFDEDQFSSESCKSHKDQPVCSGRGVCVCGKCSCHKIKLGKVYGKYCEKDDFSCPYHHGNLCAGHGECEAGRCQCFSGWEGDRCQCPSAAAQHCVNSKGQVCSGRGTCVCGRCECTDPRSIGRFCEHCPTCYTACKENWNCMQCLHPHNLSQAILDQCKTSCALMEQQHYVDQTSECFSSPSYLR
Description: as §1, §2

BxPC-3 cells = assay: Binding of peptide-IRDye conjugates to cultured BxPC-3 cells; type: cell-based, human; conditions: BxPC-3 (αvβ6+ αvβ8-), 1 h at 37° C.
Description: (§3) B) Binding of the indicated peptide-IRDye conjugates to the various cell lines. Various amounts of conjugates were added to cell monolayers (grown in 96-well microtiter plates) and incubated for 1 h at 37° C., 5% CO2 (see Experimental section). After washing, bound fluorescence was measured using an Odyssey CLx (LI-COR) scanner. A representative image of the scanned plate and binding quantification are reported. Mean ±SE of quadruplicate wells.
(§4) Various amounts of unlabeled peptides were mixed 5a-IRDye (4 nM) and added to the cells. After 1 h, the plates were washed, and the bound fluorescence was quantified as described above (left panels).
(§5) The binding of peptide-IRDye conjugates to BxPC-3, 5637, HUVECs, 4T1, K8484 and DT6606 cells was analyzed as follows. The cells were grown in 96-well clear-bottom black microtiterplates (Corning® cat. 3603, 2-3x10^4 cells/well, plated 48 h before the experiment). After washing twice with 0.9% sodium chloride solution, the cells were incubated with 25 mM Hepes buffer, pH 7.4, containing 150 mM sodium chloride, 1 mM magnesium chloride, 1 mM manganese chloride and 1% BSA (binding buffer) for 5 min. Peptide-IRDye conjugates (0.013-40 nM in binding buffer) were then added to the cells and left to incubate for 1 h at 37° C., 5% CO2. After three washings with binding buffer (5 min each, 200 al/well), the cells were fixed with PBS containing 2% paraformaldehyde and 3% sucrose for 15 min at room temperature. Binding of conjugates to cells was quantified by scanning the plate (filled with PBS, 100 al/well) with the Odyssey CLx (LI-COR) using the following settings: scan intensity, 8.5; scan focus offset 4; scan quality, highest; channel, 800; resolution, 169 pm. Then, the plates were incubated with 5 μg/ml of 4′,6-diamidino-2-phenylindole (DAPI) for 15 min, washed twice with PBS and read with a VICTOR3 plate reader (Perkin Elmer, Waltham, Mass., USA) to quantify the cell number in each well, using the following filters: excitation, 355±40 nm; emission, 460±25 nm (acquisition,1 s).

5637 cells [3] = assay: Binding of peptide-IRDye conjugates to cultured 5637 cells; type: cell-based, human; conditions: 5637 (αvβ6+ αvβ8+), 1 h at 37° C.
Description: as §3, §4, §5

HUVEC = assay: Binding of peptide-IRDye conjugates to cultured HUVEC; type: cell-based, human; conditions: HUVEC (lacking these integrins)
Description: as §3
The binding of peptide-IRDye conjugates to BxPC-3, 5637, HUVECs, 4T1, K8484 and DT6606 cells was analyzed as follows. The cells were grown in 96-well clear-bottom black microtiterplates (Corning® cat. 3603, 2-3x10^4 cells/well, plated 48 h before the experiment). […] Binding of conjugates to cells was quantified by scanning the plate (filled with PBS, 100 al/well) with the Odyssey CLx (LI-COR) using the following settings: scan intensity, 8.5; scan focus offset 4; scan quality, highest; channel, 800; resolution, 169 pm. Then, the plates were incubated with 5 μg/ml of 4′,6-diamidino-2-phenylindole (DAPI) for 15 min, washed twice with PBS and read with a VICTOR3 plate reader (Perkin Elmer, Waltham, Mass., USA) to quantify the cell number in each well, using the following filters: excitation, 355±40 nm; emission, 460±25 nm (acquisition,1 s).

[4] = tested on: subcutaneous BxPC-3 tumors; conditions: mouse, in vivo
in vivo = conditions: female, NSG, mouse, iv, 1.28 nmol
5637 cells [5] = assay: Binding assay of 5-Qdot to human 5637 cells (FACS, fluorescence microscopy); type: cell-based; conditions: flow cytometry and fluorescence microscopy
Description: FIG. 3. Binding of CgA-derived peptides to human bladder cancer 5637 cells. a) Effect of 1, 4, 5 and 6 on the binding of anti-αvβ6 mAb 10D5 to 5637 cells. Antibody binding quantification as determined by flow cytometry analysis (FACS) (see also FIG. 11A). Compounds were mixed with mAb 10D5 and added to cells; mAb binding was detected by FACS and inhibitory concentration (IC50, mean±SEM) was determined. Each point is in duplicate. b) Binding of 5-Qdot or *Qdot (control) to 5637 cells as measured by FACS. Representative FACS (left and middle) and quantification of Qdot binding (right) (circles: mean±SD of duplicates). c) Representative fluorescence bioimaging of 5637 cells incubated with 5-Qdot, *Qdot or diluent. […]
Binding assays of 5-Qdot and *Qdot to 5637 cells were carried out as follows: 5637 cells were grown in chamber slides (6×10^4 cells/well). […] The cells were washed again with binding buffer, fixed with paraformaldehyde for 20 min, counterstained with DAPI (0.05 μg/ml, Invitrogen), and analyzed using a fluorescence microscopy (Carl Zeiss, Axioscop 40FL; excitation, filter, BP 560/40 nm; beam splitter filter, FT 585 nm; emission filter, 630/75 nm). […] After washing with 25 mM Hepes buffer, pH 7.4, containing 150 mM NaCl, 1 mM MgCl2, 1 mM MgCl2, the cells were fixed with formaldehyde and analyzed using the CytoFLEX S (Beckman Coulter).

αvβ6 [6] = molecular target: T1, αvβ6; assay: Competitive integrin binding assay (isoDGR/STV-HRP probe), αvβ6-coated plates; conditions: non-stapled control peptide with RGE
Description: (§6) Peptide binding was measured by a competitive binding assay using as integrin probe a complex made by a N-terminal acetylated isoDGR peptide biotinylated at the E-amino group of the lysine, acetyl-Ciso[…]-bio (SEQ ID No. 29), and a streptavidin-peroxidase conjugate (called isoDGR/STV-HRP)[43].
(§7) Each mixture was then added to integrin-coated wells and left to incubate for 2 h at room temperature. After washing with 25 mM Tris-HCl, pH 7.4, containing 150 mM sodium chloride, 1 mM magnesium chloride, 1 mM manganese chloride, each well was filled with a chromogenic solution (o-phenylenediamine dihydrochloride) and left to incubate for 30 min at room temperature. The chromogenic reaction was stopped by adding 1 N sulfuric acid. The absorbance at 490 nm was then measured using a microtiterplate reader. Ki values were calculated by non-linear regression analysis of competitive binding data using the “One site - Fit Ki” equation of the GraphPad Prism Software using the Kd values of the probe indicated above.

αvβ8 [7] = molecular target: T2, αvβ8; assay: Competitive integrin binding assay (isoDGR/STV-HRP probe), αvβ8-coated plates; conditions: non-stapled control peptide with RGE
Description: as §6, §7

αvβ6 [8] = molecular target: T1, αvβ6; conditions: cited from earlier work
αvβ8 [9] = molecular target: T2, αvβ8; conditions: Table 3a; Ki of 2 as determined in [21]; cited from earlier work
α5β1 = molecular target: T3, α5β1 (Homo sapiens, UniProt P05556+P08648); conditions: Table 3a; Ki of 2 as determined in [21]; cited from earlier work
T3 construct: purchased Immunological Sciences (Rome, Italy)

αvβ5 = molecular target: T4, αvβ5 (Homo sapiens, UniProt P06756+P18084); conditions: Table 3a; Ki of 2 as determined in [21]; cited from earlier work
T4 construct: purchased Immunological Sciences (Rome, Italy)
T4 sequence (P06756 31-889 limits assumed): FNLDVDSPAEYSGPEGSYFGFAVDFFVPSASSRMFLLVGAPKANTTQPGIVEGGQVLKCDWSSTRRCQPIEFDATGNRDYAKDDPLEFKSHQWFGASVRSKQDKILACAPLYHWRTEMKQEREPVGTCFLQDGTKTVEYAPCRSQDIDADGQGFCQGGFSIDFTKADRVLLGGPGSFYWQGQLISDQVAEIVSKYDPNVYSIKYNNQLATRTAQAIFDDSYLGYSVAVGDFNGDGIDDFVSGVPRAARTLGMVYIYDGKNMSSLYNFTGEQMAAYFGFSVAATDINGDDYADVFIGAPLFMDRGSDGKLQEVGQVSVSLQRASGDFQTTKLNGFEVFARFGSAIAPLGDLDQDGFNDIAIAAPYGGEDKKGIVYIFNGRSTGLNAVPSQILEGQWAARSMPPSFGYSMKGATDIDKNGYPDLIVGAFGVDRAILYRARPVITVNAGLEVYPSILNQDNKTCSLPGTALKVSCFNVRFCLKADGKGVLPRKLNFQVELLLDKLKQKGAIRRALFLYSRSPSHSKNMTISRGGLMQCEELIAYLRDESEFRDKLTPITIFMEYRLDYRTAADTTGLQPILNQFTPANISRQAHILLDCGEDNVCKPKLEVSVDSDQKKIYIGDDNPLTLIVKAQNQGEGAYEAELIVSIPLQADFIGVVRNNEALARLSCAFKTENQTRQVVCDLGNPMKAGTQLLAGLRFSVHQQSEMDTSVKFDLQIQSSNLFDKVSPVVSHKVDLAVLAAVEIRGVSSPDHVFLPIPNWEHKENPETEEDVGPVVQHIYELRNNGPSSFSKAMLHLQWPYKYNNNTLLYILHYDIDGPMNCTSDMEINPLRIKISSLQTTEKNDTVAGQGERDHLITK
T4 sequence (P06756 891-1048 partner limits assumed): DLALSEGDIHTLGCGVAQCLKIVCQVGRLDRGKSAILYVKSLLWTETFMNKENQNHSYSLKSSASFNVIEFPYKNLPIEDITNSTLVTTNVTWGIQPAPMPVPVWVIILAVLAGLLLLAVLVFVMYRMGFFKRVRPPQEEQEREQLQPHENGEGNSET
T4 sequence (P18084 24-799): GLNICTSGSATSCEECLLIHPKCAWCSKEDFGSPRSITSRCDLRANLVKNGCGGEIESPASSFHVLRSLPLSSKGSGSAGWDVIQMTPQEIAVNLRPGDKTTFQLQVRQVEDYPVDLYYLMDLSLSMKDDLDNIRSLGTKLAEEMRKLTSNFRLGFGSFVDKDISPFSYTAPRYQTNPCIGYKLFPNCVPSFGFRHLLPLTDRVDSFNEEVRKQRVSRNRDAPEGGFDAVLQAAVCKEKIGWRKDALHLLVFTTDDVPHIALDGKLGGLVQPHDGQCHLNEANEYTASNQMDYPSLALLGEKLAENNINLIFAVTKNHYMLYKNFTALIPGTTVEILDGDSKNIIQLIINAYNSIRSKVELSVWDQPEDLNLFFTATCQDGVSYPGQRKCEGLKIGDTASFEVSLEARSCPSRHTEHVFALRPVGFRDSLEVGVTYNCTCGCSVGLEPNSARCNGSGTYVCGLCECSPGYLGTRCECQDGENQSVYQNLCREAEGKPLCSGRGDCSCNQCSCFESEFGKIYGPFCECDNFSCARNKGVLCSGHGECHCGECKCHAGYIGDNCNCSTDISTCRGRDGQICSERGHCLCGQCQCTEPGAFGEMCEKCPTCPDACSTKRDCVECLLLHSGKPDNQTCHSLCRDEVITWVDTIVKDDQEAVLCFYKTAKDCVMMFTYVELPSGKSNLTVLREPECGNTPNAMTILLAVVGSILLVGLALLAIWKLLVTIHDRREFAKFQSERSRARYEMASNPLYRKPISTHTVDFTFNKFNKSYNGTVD

αvβ3 = molecular target: T5, αvβ3 (Homo sapiens, UniProt P05106+P06756); conditions: Table 3a; Ki of 2 as determined in [21]; cited from earlier work
T5 construct: purchased Immunological Sciences (Rome, Italy)
T5 sequence (P06756 31-889 limits assumed): as the sequence (P06756 31-889 limits assumed) above
T5 sequence (P06756 891-1048 partner limits assumed): as the sequence (P06756 891-1048 partner limits assumed) above
T5 sequence (P05106 27-788): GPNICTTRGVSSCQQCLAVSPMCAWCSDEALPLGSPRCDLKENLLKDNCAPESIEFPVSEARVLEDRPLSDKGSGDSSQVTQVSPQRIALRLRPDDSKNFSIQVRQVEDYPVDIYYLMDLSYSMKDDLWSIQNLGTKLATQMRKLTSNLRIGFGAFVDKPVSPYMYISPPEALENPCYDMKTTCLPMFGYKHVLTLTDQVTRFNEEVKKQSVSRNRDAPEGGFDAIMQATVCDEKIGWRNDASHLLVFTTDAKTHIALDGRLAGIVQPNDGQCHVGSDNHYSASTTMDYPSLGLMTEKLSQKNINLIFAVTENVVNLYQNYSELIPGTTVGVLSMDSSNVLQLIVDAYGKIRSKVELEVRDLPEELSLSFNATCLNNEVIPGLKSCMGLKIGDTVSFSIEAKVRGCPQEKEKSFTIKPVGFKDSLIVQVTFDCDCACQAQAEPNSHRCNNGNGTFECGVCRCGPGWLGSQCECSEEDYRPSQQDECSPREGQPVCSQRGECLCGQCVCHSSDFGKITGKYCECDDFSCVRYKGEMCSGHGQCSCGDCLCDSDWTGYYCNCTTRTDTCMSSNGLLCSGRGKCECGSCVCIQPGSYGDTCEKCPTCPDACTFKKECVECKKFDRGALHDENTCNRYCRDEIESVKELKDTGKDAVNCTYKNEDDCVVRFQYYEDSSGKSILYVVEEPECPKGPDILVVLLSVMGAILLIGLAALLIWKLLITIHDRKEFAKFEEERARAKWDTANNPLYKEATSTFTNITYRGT

In the case of “2a-IRDye: control peptide 2a coupled via Cys to maleimide-IRDye 800CW (C(maleimide‑IRDye 800CW)FETLRGEERILSILRHQNLLKELQD) [reference compound]”, the “binding to αvβ6-coated plates” value (αvβ6 [1]) is reported as “not”, the “binding to αvβ8-coated plates” value (αvβ8 [2]) is reported as “not” and the “binding of conjugate to cells” value (BxPC-3 cells) is reported as “not”. The “binding of conjugate to cells” value (5637 cells [3]) was “not”.
For `CC[C@H](C)[C@H](NC(=O)[C@H](CCCNC(=N)N)NC(=O)[C@H](CC(C)C)NC(=O)[C@H](CC(=O)O)NC(=O)CNC(=O)[C@H](CCCNC(=N)N)NC(=O)[C@H](CC(C)C)NC(=O)[C@@H](NC(=O)[C@H](CCC(=O)O)NC(=O)[C@H](Cc1ccccc1)NC(=O)[C@@H](N)CSC1CC(=O)N(CCNC(=O)CCCCCN2C(=CC=C3CCCC(C=CC4=[N+](CCCCS(=O)(=O)[O-])c5ccc(S(=O)(=O)O)cc5C4(C)C)=C3Oc3ccc(S(=O)(=O)O)cc3)C(C)(C)c3cc(S(=O)(=O)O)ccc32)C1=O)[C@@H](C)O)C(=O)N[C@@H](CC(C)C)C(=O)N[C@@H](CO)C(=O)N[C@H](C(=O)N[C@@H](CC(C)C)C(=O)N[C@@H](CCCNC(=N)N)C(=O)N[C@H]1Cc2cn(nn2)CCCC[C@@H](C(=O)N[C@@H](CCCCN)C(=O)N[C@@H](CCC(=O)O)C(=O)N[C@@H](CC(C)C)C(=O)N[C@@H](CCC(N)=O)C(=O)N[C@@H](CC(=O)O)C(N)=O)NC(=O)[C@H](CC(C)C)NC(=O)[C@H](CC(N)=O)NC(=O)[C@H](CCC(N)=O)NC1=O)[C@@H](C)CC` (stereo partly shown) [5a-IRDye], the “binding of conjugate to cells” value (BxPC-3 cells) was “could bind, in a dose dependent manner”, the “binding of conjugate to cells” value (5637 cells [3]) was “could bind, in a dose dependent manner” and the “binding of conjugate to cells” value (HUVEC) was “little or not”. For the same compound, the “tumor signal twenty-four hours after injection” value [4] was “significant signal was still visible”, the “time of maximal tumor uptake after injection” value ([4]; iv) was 1 h and the tissue to tissue ratio at 24 h (in vivo) was 12.
With “*Qdot: control nanoconjugate without the targeting ligand; Qdot coupled to control peptide cyclic head-to-tail c(CGARAG) (cyclo(CGARAG); also: coupled to Qdot (control nanoconjugate)) [reference compound]” the “binding of Qdot conjugate to cells” value (5637 cells [5]) was “not”.
In the case of FETLRGEERILSILRHQNLLKELQD [peptide 2], the “binding to αvβ6” value (αvβ6 [6]) is listed as “unable to bind these integrins”, the “binding to αvβ8” value (αvβ8 [7]) is listed as “unable to bind these integrins” and the Ki (αvβ6 [8]; Table 3a, Ki of 2 as determined in [21], read-out: Ki αvβ6) is listed as over 50 µM. The Ki (αvβ6 [8]; peptide with RGE instead of RGD, read-out: Ki) was over 50 µM, the Ki (αvβ8 [9]) was over 50 µM and the Ki (α5β1) was over 50 µM. For the same compound, the Ki (αvβ5) was over 50 µM and the Ki (αvβ3) was over 50 µM.
